Earlier results in US20160208299A1, “PRODUCTION OF ISOQUINOLINE ALKALOIDS AND FLAVONOIDS IN PLANT CELL CULTURES OF GOLDENSEAL (HYDRASTIS CANADENSIS)” (DIANAPLANTSCIENCES INC., priority 2015, published 2016).

Columns and labels:
E. coli = conditions: cells lining the walls of the urinary tract

COc1ccc2cc3[n+](cc2c1OC)CCc1cc2c(cc1-3)OCO2 [berberine]
effective: effectiveness against parasite (Entamoeba histolytica) | effectiveness against parasite (Giardia lamblia) | effectiveness against parasite (Trichomonas vaginalis) | effectiveness in treating infection by blocking the adhesion of E. coli (E. coli)
